Numbers after ± are expanded uncertainties.
What was measured:
[1] = 101 kPa, Liquid
[2] = xn = mol fraction of the nth substance listed; details: 101 kPa, Liquid

OCCO [1,2-ethanediol]
[1]
Details	mass density [kg/m3]	viscosity [mPa·s]
308.15 K	1101.88 ± 0.44	11.19 ± 0.21
313.15 K	1098.33 ± 0.43	9.444 ± 0.18
318.15 K	1094.75 ± 0.43	7.972 ± 0.16
323.15 K	1091.16 ± 0.42	6.794 ± 0.14
333.15 K	1083.94 ± 0.42	5.065 ± 0.11
343.15 K	1074.53 ± 5	3.879 ± 0.086
353.15 K	1069.72 ± 0.4	3.058 ± 0.069

OCCO [1,2-ethanediol] + Cc1ccc(O)cc1
[2], x2 = 0
Details	mass density [kg/m3]	viscosity [mPa·s]
308.15 K	1101.88 ± 0.44	11.19 ± 0.21
313.15 K	1098.33 ± 0.43	9.444 ± 0.18
318.15 K	1094.75 ± 0.43	7.972 ± 0.16
323.15 K	1091.16 ± 0.42	6.794 ± 0.14
333.15 K	1083.94 ± 0.42	5.065 ± 0.11
343.15 K	1074.53 ± 5	3.879 ± 0.086
353.15 K	1069.72 ± 0.4	3.058 ± 0.069

Cc1ccc(O)cc1 [4-methylphenol]
[1]
Details	mass density [kg/m3]	viscosity [mPa·s]
308.15 K	1021.98 ± 0.45	8.444 ± 0.17
313.15 K	1018.05 ± 0.45	6.745 ± 0.14
318.15 K	1014.09 ± 0.44	5.471 ± 0.12
323.15 K	1010.12 ± 0.44	4.532 ± 0.1
328.15 K	1006.57 ± 0.44	3.888 ± 0.087
333.15 K	1002.09 ± 0.43	3.245 ± 0.073
343.15 K	992.07 ± 5	2.431 ± 0.056
353.15 K	986.24 ± 0.43	1.891 ± 0.044

Cc1ccc(O)cc1 [4-methylphenol] + CO
[2]
Details	mass density, 308.15 K [kg/m3]	mass density, 313.15 K [kg/m3]	mass density, 318.15 K [kg/m3]	mass density, 323.15 K [kg/m3]	mass density, 328.15 K [kg/m3]	viscosity, 308.15 K [mPa·s]	viscosity, 313.15 K [mPa·s]	viscosity, 318.15 K [mPa·s]	viscosity, 323.15 K [mPa·s]	viscosity, 328.15 K [mPa·s]
x1 = 0.1	837.27 ± 0.45	832.69 ± 0.46	828.09 ± 0.46	823.45 ± 0.47	819.09 ± 0.48	0.701 ± 0.018	0.652 ± 0.017	0.608 ± 0.016	0.568 ± 0.015	0.533 ± 0.015
x1 = 0.1999	881.21 ± 0.4	876.78 ± 0.41	872.35 ± 0.41	867.89 ± 0.42	863.71 ± 0.42	0.977 ± 0.024	0.901 ± 0.023	0.834 ± 0.021	0.772 ± 0.02	0.719 ± 0.019
x1 = 0.2998	914.53 ± 0.38	910.25 ± 0.38	905.93 ± 0.39	901.61 ± 0.39	897.58 ± 0.4	1.333 ± 0.032	1.218 ± 0.03	1.112 ± 0.027	0.998 ± 0.025	0.942 ± 0.024
x1 = 0.4	940.54 ± 0.37	936.35 ± 0.37	932.16 ± 0.38	927.93 ± 0.38	924.03 ± 0.38	1.762 ± 0.041	1.588 ± 0.038	1.435 ± 0.034	1.305 ± 0.031	1.192 ± 0.029
x1 = 0.4999	961.59 ± 0.37	957.48 ± 0.37	953.35 ± 0.38	949.21 ± 0.38	945.39 ± 0.38	2.316 ± 0.053	2.044 ± 0.047	1.817 ± 0.043	1.633 ± 0.039	1.477 ± 0.035
x1 = 0.5999	977.95 ± 0.38	973.9 ± 0.38	969.84 ± 0.38	965.76 ± 0.38	962.01 ± 0.38	3.021 ± 0.068	2.631 ± 0.06	2.31 ± 0.053	2.043 ± 0.047	1.821 ± 0.043
x1 = 0.6999	992.04 ± 0.39	988.04 ± 0.39	984.03 ± 0.39	980 ± 0.39	976.3 ± 0.39	3.928 ± 0.088	3.36 ± 0.076	2.894 ± 0.066	2.527 ± 0.058	2.229 ± 0.051
x1 = 0.8	1003.53 ± 0.41	999.57 ± 0.4	995.58 ± 0.4	991.58 ± 0.4	987.91 ± 0.4	5.072 ± 0.11	4.251 ± 0.094	3.603 ± 0.081	3.092 ± 0.07	2.688 ± 0.061
x1 = 0.8999	1013.73 ± 0.43	1009.79 ± 0.42	1005.83 ± 0.42	1001.84 ± 0.42	998.2 ± 0.42	6.535 ± 0.14	5.364 ± 0.12	4.44 ± 0.099	3.754 ± 0.084	3.212 ± 0.073
x1 = 1	1021.98 ± 0.45	1018.05 ± 0.45	1014.09 ± 0.44	1010.12 ± 0.44	1006.57 ± 0.44	8.444 ± 0.17	6.745 ± 0.14	5.471 ± 0.12	4.532 ± 0.1	3.888 ± 0.087

CO [methanol]
[1]
Details	mass density [kg/m3]	viscosity [mPa·s]
308.15 K	776.92 ± 0.51	0.476 ± 0.014
313.15 K	772.13 ± 0.52	0.445 ± 0.013
318.15 K	767.31 ± 0.53	0.421 ± 0.013
323.15 K	762.46 ± 0.53	0.395 ± 0.012
328.15 K	757.85 ± 0.54	0.372 ± 0.012

CO [methanol] + Cc1ccc(O)cc1
[2], x2 = 0
Details	mass density [kg/m3]	viscosity [mPa·s]
308.15 K	776.92 ± 0.51	0.476 ± 0.014
313.15 K	772.13 ± 0.52	0.445 ± 0.013
318.15 K	767.31 ± 0.53	0.421 ± 0.013
323.15 K	762.46 ± 0.53	0.395 ± 0.012
328.15 K	757.85 ± 0.54	0.372 ± 0.012

Reference: the NIST ThermoML archive (doi:10.1021/je050376y)
